From PubChem BioAssay (NCI)
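1) Cells in 96-well plates. 2) Compound, 48 h, 5 concentrations. 3) Linear interpolation between surrounding doses. 4) Unreached endpoint = highest concentration. TGI denotes the concentration required for complete inhibition of growth.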

How the values were obtained:
Test in all cases: NCI anticancer screen, dose series, 48 h
COLO 205 colon = tested on: COLO 205 colon
HCC-2998 colon = tested on: HCC-2998 colon
HL-60(TB) leukemia = tested on: HL-60(TB) leukemia
NCI-H226 lung = tested on: NCI-H226 lung
SF-295 CNS = tested on: SF-295 CNS
SK-MEL-2 melanoma = tested on: SK-MEL-2 melanoma
SK-OV-3 ovarian = tested on: SK-OV-3 ovarian
BT-549 breast = tested on: BT-549 breast
MDA-MB-231 breast = tested on: MDA-MB-231 breast
HS 578T breast = tested on: HS 578T breast

Compound	TGI (COLO 205 colon) [µM]	TGI (HCC-2998 colon) [µM]	TGI (HL-60(TB) leukemia) [µM]	TGI (NCI-H226 lung) [µM]	TGI (SF-295 CNS) [µM]	TGI (SK-MEL-2 melanoma) [µM]	TGI (SK-OV-3 ovarian) [µM]	TGI (BT-549 breast) [µM]	TGI (MDA-MB-231 breast) [µM]	TGI (HS 578T breast) [µM]
Cc1cc(=O)c2c([nH]1)NS(=O)(=O)NC2=O	> 100	> 100	> 100	> 100	> 100	> 100	> 100			
CS(=O)(=O)OCCn1c(=O)n(CCOS(C)(=O)=O)c(=O)n(CCOS(C)(=O)=O)c1=O	> 100	> 100	> 100	> 100	> 100		> 100	> 100	> 100	
CC(=O)N(C(C)=O)C1=C2c3ccccc3N(S(=O)(=O)c3ccccc3)C2n2c(=O)n(-c3ccccc3)c(=O)n2C1 (stereo not given)	80.2	62.4	63.3		> 100	47.5	> 100			
CCOC(=O)/C=C(\C)c1ccc(C)cc1C	> 100	> 100	11.9	> 100	> 100	> 100				
O=c1ccc2cc3ccc4cccc5ccc(c2o1)c3c45	> 100		> 100	58.3	> 100	> 100	32.6			
O=C1/C(=C\c2cccc(Oc3ccccc3)c2)S(=O)(=O)C(c2ccccc2)N1Cc1ccccc1 (stereo not given)	57	82.5	57.7		> 100	40.7	> 100	98.6	68.1	40.5
CCN(C(=S)N[C@@H](Cc1ccccc1)C(=O)N[C@@H](CC(C)C)C(=O)OC)c1ccccc1	> 100	> 100		> 100	> 100	> 100	> 100	> 100	> 100	
COc1cc(C2SCC(=O)N2c2ccc(NC(=O)c3ccc(N4C(=O)CSC4c4cc(OC)c(OC)c(OC)c4)cc3)cc2)cc(OC)c1OC (stereo not given)	> 100	> 100			> 100	> 100	> 100	> 100	> 100	> 100
BrC/C=C/C[P+](c1ccccc1)(c1ccccc1)c1ccccc1	16.1	> 100	39.2		60.6	25.7	> 100			
O=C(CCCN1CCC2(CC1)CC(=O)N(N1CCOCC1)C2=O)c1ccccc1	> 100	> 100	> 100	> 100	> 100		> 100	27.9	> 100	
N#CCCN(CCC#N)c1ccc(/C=C2\N=C(c3ccccc3)N(c3ccc(Cl)cc3)C2=O)cc1	> 100		> 100	> 100	> 100	> 100	> 100	> 100	> 100	86.8
Cc1c(S(=O)(=O)/N=C(\N)Nc2ccc(Cl)cc2)sc2ccc(Cl)cc12	45.9		63.5	44	46.7	33.9	86.8	58	32.9	59
O=c1c2ccccc2nc2[nH][nH]c(=S)n12	> 100		> 100	> 100	> 100	> 100	> 100	> 100	> 100	> 100
Cc1ccccc1C(O)(c1nccn1C)c1nccn1C	> 100	> 100	> 100	> 100	> 100	> 100	> 100	> 100		> 100
O=C1C=CC(=O)N1Nc1ccc([N+](=O)[O-])cc1[N+](=O)[O-]	> 60.7	> 100	> 51.5	> 100	> 100	> 100	> 100			
CC(=O)O[C@]12CCCCCC1C1(O)C(O)CCC[C@H]12 (stereo not given in full)	> 100		> 100	> 100	> 100	> 100	> 100			
CN(C)c1nc(=NCc2ccccc2)ss1	> 10	> 10	> 8.45	> 10	> 10		> 10		> 10	> 10
CC(C)(C)NC(=O)/C(=C\Sc1ccccc1)c1ccc2c(c1)OCO2	53.4	> 100	41.9		> 100	34.6	> 100	> 100	52.8	
CSc1cc(Cl)c(C)cc1S(=O)(=O)NC(=O)NNc1ccc(Cl)cc1	> 100	> 100		> 100	> 100	> 100	> 100		> 100	> 100
CN(C)C(=S)S	> 100	59.4		> 100	> 100	> 93.8	> 100	> 100	> 100	> 100
CC12CC(=O)C3C(C(=O)C1)C32C (stereo not given)	> 100	> 100		> 100	> 100	> 100	> 100	> 100	> 100	
O=C1C[C@H](Sc2ccccc2)C2(OCCO2)[C@@H](Sc2ccccc2)C1	15.4	6.42		6.03	17.9	26.3	24.7	5.41	5.78	5.85
COc1ccc2nc3cc(Cl)ccc3c(NCCCNCCCNc3c4ccc(Cl)cc4nc4ccc(OC)cc34)c2c1	0.158	0.147	23.2	0.177	0.183	0.15	0.384	1.67	0.0555	
N#C/C(=C\c1cc(Br)c(O)c(Br)c1)c1cccnc1	> 100	> 100	> 100	91.4	46.7	44.4	> 100	56.9		
c1ccc2c(c1)NC(C1OC3CCCN3C1C1Nc3ccccc3S1)S2 (stereo not given)	> 100	> 100	46.7		> 100		> 100	> 100		> 100
